{"source": "patent US11767310B2", "about": "“Nicotinamide RIPK1 inhibitors” (AbbVie Inc., priority 2021, dated 2023)", "test_in_all_cases": "Kinase binding screen", "conditions_in_all_cases": "read-out: Percent Control at 100 nM Compound Concentration", "key": {"[1]": {"target": "CLK4 (Homo sapiens (Human), UniProt Q9HAZ1)"}, "[2]": {"target": "RSK1(Kin.Dom.2-C-terminal) (Homo sapiens (Human), UniProt Q15418)"}, "[3]": {"target": "CTK (Homo sapiens (Human), UniProt P42679)"}, "[4]": {"target": "STK33 (Homo sapiens (Human), UniProt Q9BYT3)"}, "[5]": {"target": "ABL2 (Homo sapiens (Human), UniProt P42684)"}, "[6]": {"target": "PFTK1 (Homo sapiens (Human), UniProt O94921)"}, "[7]": {"target": "PKN2 (Homo sapiens (Human), UniProt Q16513)"}, "[8]": {"target": "MTOR (Homo sapiens (Human), UniProt P42345)"}, "[9]": {"target": "SGK (Homo sapiens (Human), UniProt O00141)", "sequence (O00141 whole entry)": "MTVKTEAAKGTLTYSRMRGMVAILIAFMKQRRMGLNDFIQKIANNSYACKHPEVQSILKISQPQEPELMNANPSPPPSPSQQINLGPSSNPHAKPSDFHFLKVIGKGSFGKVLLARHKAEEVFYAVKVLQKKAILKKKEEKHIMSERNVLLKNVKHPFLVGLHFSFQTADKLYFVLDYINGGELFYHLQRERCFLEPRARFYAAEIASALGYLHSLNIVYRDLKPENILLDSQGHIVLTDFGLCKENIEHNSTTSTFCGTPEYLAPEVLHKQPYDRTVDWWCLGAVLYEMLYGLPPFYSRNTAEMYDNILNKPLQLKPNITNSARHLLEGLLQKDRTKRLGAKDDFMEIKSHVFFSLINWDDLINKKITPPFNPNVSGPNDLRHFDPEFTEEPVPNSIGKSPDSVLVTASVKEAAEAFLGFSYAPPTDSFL"}, "[10]": {"target": "TSSK1B (Homo sapiens (Human), UniProt Q9BXA7)"}, "[11]": {"target": "PDGFRB (Homo sapiens (Human), UniProt P09619)"}, "[12]": {"target": "NEK2 (Homo sapiens (Human), UniProt P51955)"}, "[13]": {"target": "ADCK3 (Homo sapiens (Human), UniProt Q8NI60)"}, "[14]": {"target": "BMX (Homo sapiens (Human), UniProt P51813)", "sequence (P51813 whole entry)": "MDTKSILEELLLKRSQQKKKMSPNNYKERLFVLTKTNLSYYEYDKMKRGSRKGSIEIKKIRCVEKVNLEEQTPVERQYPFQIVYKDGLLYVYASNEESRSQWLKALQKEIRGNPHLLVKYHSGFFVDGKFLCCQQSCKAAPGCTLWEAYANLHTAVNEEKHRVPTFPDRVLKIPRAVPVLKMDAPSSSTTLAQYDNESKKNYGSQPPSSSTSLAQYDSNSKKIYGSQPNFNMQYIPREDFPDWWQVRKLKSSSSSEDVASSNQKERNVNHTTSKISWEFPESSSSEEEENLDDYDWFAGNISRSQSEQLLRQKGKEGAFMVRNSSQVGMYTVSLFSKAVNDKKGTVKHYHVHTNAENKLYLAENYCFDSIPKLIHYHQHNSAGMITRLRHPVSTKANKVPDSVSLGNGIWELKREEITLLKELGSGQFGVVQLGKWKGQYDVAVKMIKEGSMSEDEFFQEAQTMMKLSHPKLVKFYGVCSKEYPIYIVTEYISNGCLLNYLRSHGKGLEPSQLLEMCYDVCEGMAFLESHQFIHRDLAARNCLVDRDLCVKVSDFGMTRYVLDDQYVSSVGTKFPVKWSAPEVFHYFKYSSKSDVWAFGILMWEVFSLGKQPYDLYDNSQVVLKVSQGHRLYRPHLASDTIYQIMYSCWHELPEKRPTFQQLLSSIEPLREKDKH"}, "[15]": {"target": "EGFR(L858R,T790M) (Homo sapiens (Human), UniProt P00533, L858R/T790M)"}, "[16]": {"target": "STK36 (Homo sapiens (Human), UniProt Q9NRP7)"}, "[17]": {"target": "PRKG2 (Homo sapiens (Human), UniProt Q13237)", "sequence (Q13237 whole entry)": "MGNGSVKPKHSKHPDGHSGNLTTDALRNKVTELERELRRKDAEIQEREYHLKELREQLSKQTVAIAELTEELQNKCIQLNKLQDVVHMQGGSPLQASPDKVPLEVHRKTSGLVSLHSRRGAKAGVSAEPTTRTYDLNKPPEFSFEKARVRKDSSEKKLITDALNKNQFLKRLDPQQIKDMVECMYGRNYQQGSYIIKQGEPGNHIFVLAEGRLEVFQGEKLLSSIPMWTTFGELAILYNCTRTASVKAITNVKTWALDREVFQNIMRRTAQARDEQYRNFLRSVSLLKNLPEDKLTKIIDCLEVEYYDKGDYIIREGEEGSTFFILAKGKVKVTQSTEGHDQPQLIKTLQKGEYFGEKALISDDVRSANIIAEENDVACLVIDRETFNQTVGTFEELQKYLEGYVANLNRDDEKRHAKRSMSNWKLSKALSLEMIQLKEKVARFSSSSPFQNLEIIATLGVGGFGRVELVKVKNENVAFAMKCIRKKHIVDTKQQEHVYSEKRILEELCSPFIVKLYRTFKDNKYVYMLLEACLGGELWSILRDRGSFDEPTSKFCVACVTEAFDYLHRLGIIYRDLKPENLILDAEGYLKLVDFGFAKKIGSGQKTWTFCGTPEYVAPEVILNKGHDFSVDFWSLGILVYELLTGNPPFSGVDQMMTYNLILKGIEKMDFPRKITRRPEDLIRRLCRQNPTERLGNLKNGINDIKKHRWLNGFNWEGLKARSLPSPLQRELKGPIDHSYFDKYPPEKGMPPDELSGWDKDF"}, "[18]": {"target": "CDKL2 (Homo sapiens (Human), UniProt Q92772)"}, "[19]": {"target": "PLK3 (Homo sapiens (Human), UniProt Q9H4B4)", "sequence (Q9H4B4 whole entry)": "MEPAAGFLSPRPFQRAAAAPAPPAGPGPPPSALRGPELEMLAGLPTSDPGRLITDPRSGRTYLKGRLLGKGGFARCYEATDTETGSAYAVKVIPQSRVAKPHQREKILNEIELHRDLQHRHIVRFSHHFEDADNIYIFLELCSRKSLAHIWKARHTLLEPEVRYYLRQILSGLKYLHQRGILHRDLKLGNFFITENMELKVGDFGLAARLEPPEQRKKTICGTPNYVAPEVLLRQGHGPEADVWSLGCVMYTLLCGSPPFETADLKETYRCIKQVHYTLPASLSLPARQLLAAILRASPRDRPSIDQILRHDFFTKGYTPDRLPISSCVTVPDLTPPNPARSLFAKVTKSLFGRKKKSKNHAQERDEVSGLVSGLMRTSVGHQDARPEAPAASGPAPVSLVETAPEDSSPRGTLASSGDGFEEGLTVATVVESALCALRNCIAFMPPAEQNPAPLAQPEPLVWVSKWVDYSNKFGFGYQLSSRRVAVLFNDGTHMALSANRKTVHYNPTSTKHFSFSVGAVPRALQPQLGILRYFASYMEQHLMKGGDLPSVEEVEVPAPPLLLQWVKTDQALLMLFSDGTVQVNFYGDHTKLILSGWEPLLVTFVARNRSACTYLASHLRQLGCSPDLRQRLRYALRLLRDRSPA"}, "[20]": {"target": "YES (Homo sapiens (Human), UniProt P07947)"}, "[21]": {"target": "BMPR1A (Homo sapiens (Human), UniProt P36894)"}, "[22]": {"target": "KIT(V559D) (Homo sapiens (Human), UniProt P10721, V559D)"}, "[23]": {"target": "FGFR1 (Homo sapiens (Human), UniProt P11362)"}, "[24]": {"target": "RSK3(Kin.Dom.2-C-terminal) (Homo sapiens (Human), UniProt Q15349)"}, "[25]": {"target": "MLK2 (Homo sapiens (Human), UniProt Q02779)"}, "[26]": {"target": "INSR (Homo sapiens (Human), UniProt P06213)", "sequence (P06213 28-1382)": "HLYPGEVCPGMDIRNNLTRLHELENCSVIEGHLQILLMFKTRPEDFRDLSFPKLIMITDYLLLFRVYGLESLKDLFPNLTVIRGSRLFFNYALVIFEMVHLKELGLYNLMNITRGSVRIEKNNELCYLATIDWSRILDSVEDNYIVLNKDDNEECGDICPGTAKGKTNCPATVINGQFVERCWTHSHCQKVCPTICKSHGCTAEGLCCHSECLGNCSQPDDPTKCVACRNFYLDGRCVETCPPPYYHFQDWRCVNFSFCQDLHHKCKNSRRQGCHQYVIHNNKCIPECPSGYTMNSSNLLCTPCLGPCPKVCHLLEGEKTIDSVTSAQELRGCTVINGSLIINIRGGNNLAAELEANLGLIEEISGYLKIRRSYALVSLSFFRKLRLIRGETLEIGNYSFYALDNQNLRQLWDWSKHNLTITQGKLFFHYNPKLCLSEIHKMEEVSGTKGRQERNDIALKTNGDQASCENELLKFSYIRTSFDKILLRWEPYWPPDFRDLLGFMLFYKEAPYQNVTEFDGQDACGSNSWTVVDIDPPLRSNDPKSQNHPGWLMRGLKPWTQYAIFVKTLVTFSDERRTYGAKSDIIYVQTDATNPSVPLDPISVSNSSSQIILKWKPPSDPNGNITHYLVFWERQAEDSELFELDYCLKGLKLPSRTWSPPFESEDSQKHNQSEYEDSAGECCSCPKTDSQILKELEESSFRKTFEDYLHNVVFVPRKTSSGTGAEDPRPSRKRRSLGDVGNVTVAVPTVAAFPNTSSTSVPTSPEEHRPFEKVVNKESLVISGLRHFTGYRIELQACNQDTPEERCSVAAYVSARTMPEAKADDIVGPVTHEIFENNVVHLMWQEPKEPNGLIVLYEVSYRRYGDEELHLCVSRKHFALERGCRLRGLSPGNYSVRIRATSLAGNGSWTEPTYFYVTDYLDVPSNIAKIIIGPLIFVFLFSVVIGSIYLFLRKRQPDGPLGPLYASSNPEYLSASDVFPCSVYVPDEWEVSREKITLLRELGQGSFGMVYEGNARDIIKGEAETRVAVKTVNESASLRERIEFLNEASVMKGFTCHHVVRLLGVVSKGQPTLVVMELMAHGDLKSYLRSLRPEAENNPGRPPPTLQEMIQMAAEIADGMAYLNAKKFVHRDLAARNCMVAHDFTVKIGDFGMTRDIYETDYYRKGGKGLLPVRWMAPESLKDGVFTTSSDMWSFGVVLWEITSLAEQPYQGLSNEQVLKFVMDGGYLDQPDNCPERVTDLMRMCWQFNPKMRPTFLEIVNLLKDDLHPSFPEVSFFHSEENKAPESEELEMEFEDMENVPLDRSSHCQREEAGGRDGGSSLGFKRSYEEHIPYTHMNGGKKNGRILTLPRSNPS"}, "[27]": {"target": "CAMK1G (Homo sapiens (Human), UniProt Q96NX5)", "sequence (Q96NX5 whole entry)": "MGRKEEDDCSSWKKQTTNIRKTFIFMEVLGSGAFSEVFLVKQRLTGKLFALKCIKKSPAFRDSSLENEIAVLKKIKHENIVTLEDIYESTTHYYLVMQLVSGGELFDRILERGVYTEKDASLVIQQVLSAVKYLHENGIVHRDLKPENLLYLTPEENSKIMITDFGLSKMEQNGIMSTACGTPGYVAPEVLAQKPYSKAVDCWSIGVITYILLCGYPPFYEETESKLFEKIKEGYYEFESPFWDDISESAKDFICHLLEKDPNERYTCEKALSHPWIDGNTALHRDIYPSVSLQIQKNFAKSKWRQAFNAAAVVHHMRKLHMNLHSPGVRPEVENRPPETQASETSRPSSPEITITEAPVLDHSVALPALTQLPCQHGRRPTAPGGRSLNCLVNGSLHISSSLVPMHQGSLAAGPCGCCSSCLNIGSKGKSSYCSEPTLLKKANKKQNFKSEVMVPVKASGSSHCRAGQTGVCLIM"}, "[28]": {"target": "PRKCQ (Homo sapiens (Human), UniProt Q04759)", "sequence (Q04759 whole entry)": "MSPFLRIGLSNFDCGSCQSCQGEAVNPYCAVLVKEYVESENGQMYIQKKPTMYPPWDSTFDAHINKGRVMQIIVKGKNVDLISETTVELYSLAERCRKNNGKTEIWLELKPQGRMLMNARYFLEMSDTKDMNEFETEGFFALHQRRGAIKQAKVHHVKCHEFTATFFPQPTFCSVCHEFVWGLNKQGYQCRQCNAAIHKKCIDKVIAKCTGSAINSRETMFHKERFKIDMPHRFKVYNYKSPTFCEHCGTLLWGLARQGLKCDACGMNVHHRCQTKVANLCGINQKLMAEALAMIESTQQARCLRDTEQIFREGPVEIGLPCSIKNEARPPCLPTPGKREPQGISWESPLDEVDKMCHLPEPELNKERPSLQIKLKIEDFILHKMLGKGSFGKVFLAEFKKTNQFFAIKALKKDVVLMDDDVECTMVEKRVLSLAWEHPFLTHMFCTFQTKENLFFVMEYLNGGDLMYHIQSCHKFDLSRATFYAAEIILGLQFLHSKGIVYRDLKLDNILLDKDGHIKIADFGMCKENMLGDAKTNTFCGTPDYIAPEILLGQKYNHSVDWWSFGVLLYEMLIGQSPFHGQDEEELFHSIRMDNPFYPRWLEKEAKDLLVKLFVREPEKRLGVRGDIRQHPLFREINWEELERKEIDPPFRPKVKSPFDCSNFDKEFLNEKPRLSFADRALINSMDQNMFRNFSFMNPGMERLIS"}, "[29]": {"target": "PIKFYVE (Homo sapiens (Human), UniProt Q9Y2I7)"}}, "note": "Read-outs that look alike come from different tables or passages of the source.", "data": [{"smiles": "CN(C[C@@H](O)Cc1ccccc1)C(=O)c1cncc(C#Cc2cnn(C(F)F)c2)c1", "note": "[Example 2, (S)-5-((1-(difluoromethyl)-1H-pyrazol-4-yl)ethynyl)-N-(2-hydroxy-3-phenylpropyl)-N-methylnicotinamide]", "values": [{"measurement": "remaining activity at 0.1 µM", "setting": "[1]; CLK4", "result": 92, "unit": "%"}, {"measurement": "remaining activity at 0.1 µM", "setting": "[2]; RSK1(Kin.Dom.2-C-terminal)", "result": 100, "unit": "%"}, {"measurement": "remaining activity at 0.1 µM", "setting": "[3]; CTK", "result": 100, "unit": "%"}, {"measurement": "remaining activity at 0.1 µM", "setting": "[4]; STK33", "result": 88, "unit": "%"}, {"measurement": "remaining activity at 0.1 µM", "setting": "[5]; ABL2", "result": 100, "unit": "%"}, {"measurement": "remaining activity at 0.1 µM", "setting": "[6]; PFTK1", "result": 100, "unit": "%"}, {"measurement": "remaining activity at 0.1 µM", "setting": "[7]; PKN2", "result": 97, "unit": "%"}, {"measurement": "remaining activity at 0.1 µM", "setting": "[8]; MTOR", "result": 73, "unit": "%"}, {"measurement": "remaining activity at 0.1 µM", "setting": "[9]; SGK", "result": 96, "unit": "%"}, {"measurement": "remaining activity at 0.1 µM", "setting": "[10]; TSSK1B", "result": 88, "unit": "%"}, {"measurement": "remaining activity at 0.1 µM", "setting": "[11]; PDGFRB", "result": 100, "unit": "%"}, {"measurement": "remaining activity at 0.1 µM", "setting": "[12]; NEK2", "result": 100, "unit": "%"}, {"measurement": "remaining activity at 0.1 µM", "setting": "[13]; ADCK3", "result": 100, "unit": "%"}, {"measurement": "remaining activity at 0.1 µM", "setting": "[14]; BMX", "result": 100, "unit": "%"}, {"measurement": "remaining activity at 0.1 µM", "setting": "[15]; EGFR(L858R,T790M)", "result": 83, "unit": "%"}, {"measurement": "remaining activity at 0.1 µM", "setting": "[16]; STK36", "result": 100, "unit": "%"}, {"measurement": "remaining activity at 0.1 µM", "setting": "[17]; PRKG2", "result": 100, "unit": "%"}, {"measurement": "remaining activity at 0.1 µM", "setting": "[18]; CDKL2", "result": 100, "unit": "%"}, {"measurement": "remaining activity at 0.1 µM", "setting": "[19]; PLK3", "result": 97, "unit": "%"}, {"measurement": "remaining activity at 0.1 µM", "setting": "[20]; YES", "result": 100, "unit": "%"}, {"measurement": "remaining activity at 0.1 µM", "setting": "[21]; BMPR1A", "result": 86, "unit": "%"}, {"measurement": "remaining activity at 0.1 µM", "setting": "[22]; KIT(V559D)", "result": 100, "unit": "%"}, {"measurement": "remaining activity at 0.1 µM", "setting": "[23]; FGFR1", "result": 94, "unit": "%"}, {"measurement": "remaining activity at 0.1 µM", "setting": "[24]; RSK3(Kin.Dom.2-C-terminal)", "result": 100, "unit": "%"}, {"measurement": "remaining activity at 0.1 µM", "setting": "[25]; MLK2", "result": 66, "unit": "%"}, {"measurement": "remaining activity at 0.1 µM", "setting": "[26]; INSR", "result": 100, "unit": "%"}, {"measurement": "remaining activity at 0.1 µM", "setting": "[27]; CAMK1G", "result": 93, "unit": "%"}, {"measurement": "remaining activity at 0.1 µM", "setting": "[28]; PRKCQ", "result": 94, "unit": "%"}, {"measurement": "remaining activity at 0.1 µM", "setting": "[29]; PIKFYVE", "result": 57, "unit": "%"}]}, {"smiles": "CN(C[C@H](Cc1ccccc1)OP(=O)(O)O)C(=O)c1cncc(C#Cc2cnn(C(F)F)c2)c1", "note": "[Example 19, (S)-1-(5-((1-(difluoromethyl)-1H-pyrazol-4-yl)ethynyl)-N-methylnicotinamido)-3-phenylpropan-2-yl dihydrogen phosphate]", "values": [{"measurement": "remaining activity at 0.1 µM", "setting": "[1]", "result": 100, "unit": "%"}, {"measurement": "remaining activity at 0.1 µM", "setting": "[2]", "result": 100, "unit": "%"}, {"measurement": "remaining activity at 0.1 µM", "setting": "[3]", "result": 90, "unit": "%"}, {"measurement": "remaining activity at 0.1 µM", "setting": "[4]", "result": 100, "unit": "%"}, {"measurement": "remaining activity at 0.1 µM", "setting": "[5]", "result": 98, "unit": "%"}, {"measurement": "remaining activity at 0.1 µM", "setting": "[6]", "result": 100, "unit": "%"}, {"measurement": "remaining activity at 0.1 µM", "setting": "[7]", "result": 100, "unit": "%"}, {"measurement": "remaining activity at 0.1 µM", "setting": "[8]", "result": 67, "unit": "%"}, {"measurement": "remaining activity at 0.1 µM", "setting": "[9]", "result": 90, "unit": "%"}, {"measurement": "remaining activity at 0.1 µM", "setting": "[10]", "result": 76, "unit": "%"}, {"measurement": "remaining activity at 0.1 µM", "setting": "[11]", "result": 100, "unit": "%"}, {"measurement": "remaining activity at 0.1 µM", "setting": "[12]", "result": 100, "unit": "%"}, {"measurement": "remaining activity at 0.1 µM", "setting": "[13]", "result": 100, "unit": "%"}, {"measurement": "remaining activity at 0.1 µM", "setting": "[14]", "result": 100, "unit": "%"}, {"measurement": "remaining activity at 0.1 µM", "setting": "[15]", "result": 94, "unit": "%"}, {"measurement": "remaining activity at 0.1 µM", "setting": "[16]", "result": 100, "unit": "%"}, {"measurement": "remaining activity at 0.1 µM", "setting": "[17]", "result": 97, "unit": "%"}, {"measurement": "remaining activity at 0.1 µM", "setting": "[18]", "result": 95, "unit": "%"}, {"measurement": "remaining activity at 0.1 µM", "setting": "[19]", "result": 92, "unit": "%"}, {"measurement": "remaining activity at 0.1 µM", "setting": "[20]", "result": 100, "unit": "%"}, {"measurement": "remaining activity at 0.1 µM", "setting": "[21]", "result": 94, "unit": "%"}, {"measurement": "remaining activity at 0.1 µM", "setting": "[22]", "result": 96, "unit": "%"}, {"measurement": "remaining activity at 0.1 µM", "setting": "[23]", "result": 95, "unit": "%"}, {"measurement": "remaining activity at 0.1 µM", "setting": "[24]", "result": 100, "unit": "%"}, {"measurement": "remaining activity at 0.1 µM", "setting": "[25]", "result": 69, "unit": "%"}, {"measurement": "remaining activity at 0.1 µM", "setting": "[26]", "result": 100, "unit": "%"}, {"measurement": "remaining activity at 0.1 µM", "setting": "[27]", "result": 100, "unit": "%"}, {"measurement": "remaining activity at 0.1 µM", "setting": "[28]", "result": 98, "unit": "%"}, {"measurement": "remaining activity at 0.1 µM", "setting": "[29]", "result": 57, "unit": "%"}]}]}
